From PubChem BioAssay AID248 (DTP/NCI, 2004)
“And” between values parts separate entries of the source, which are not always exact repeats. Equal entries are not always repeated. Toxic doses and inconclusive results are not listed. Rule as the data show it: active = T/C of 150% or more; inactive = T/C below 125%.

System: L1210 leukemia ip in BDF1 mice, survival T/C
Test: NCI In Vivo Anticancer Drug Screen. Data for tumor model L1210 Leukemia (intraperitoneal) in B6D2F1 (BDF1) mice
Conditions: endpoint: mean survival time, higher = longer survival
Method in brief: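 Value reflects the ratio of survival in compound-treated mice to survival in vehicle-treated controls, with both groups carrying the same transplanted tumor.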

[1] = dose: 100.0 mg/kg/injection, schedule: Q01DX001 (ip), vehicle: carboxymethylcellulose (CMC)
[2] = dose: 200.0 mg/kg/injection, schedule: Q01DX001 (ip), vehicle: carboxymethylcellulose (CMC)
[3] = dose: 400.0 mg/kg/injection, schedule: Q01DX001 (ip), vehicle: carboxymethylcellulose (CMC)
[4] = dose: 100.0 mg/kg/injection, schedule: Q01DX009 (ip), vehicle: Klucel (hydroxypropylcellulose) (HPC)
[5] = dose: 100.0 mg/kg/injection, schedule: Q04DX003 (ip), vehicle: Klucel (hydroxypropylcellulose) (HPC)
[6] = dose: 200.0 mg/kg/injection, schedule: Q01DX009 (ip), vehicle: Klucel (hydroxypropylcellulose) (HPC)
[7] = dose: 200.0 mg/kg/injection, schedule: Q04DX003 (ip), vehicle: Klucel (hydroxypropylcellulose) (HPC)
[8] = dose: 400.0 mg/kg/injection, schedule: Q01DX009 (ip), vehicle: Klucel (hydroxypropylcellulose) (HPC)
[9] = dose: 400.0 mg/kg/injection, schedule: Q04DX003 (ip), vehicle: Klucel (hydroxypropylcellulose) (HPC)
[10] = dose: 100.0 mg/kg/injection, schedule: Q04DX003 (ip), vehicle: saline with Tween-80
[11] = dose: 200.0 mg/kg/injection, schedule: Q04DX003 (ip), vehicle: saline with Tween-80
[12] = dose: 400.0 mg/kg/injection, schedule: Q04DX003 (ip), vehicle: saline with Tween-80
[13] = dose: 100.0 mg/kg/injection, schedule: Q01DX001 (ip), vehicle: saline
[14] = dose: 200.0 mg/kg/injection, schedule: Q01DX001 (ip), vehicle: saline
[15] = dose: 400.0 mg/kg/injection, schedule: Q01DX001 (ip), vehicle: saline
[16] = dose: 25.0 mg/kg/injection, schedule: Q01DX001 (ip), vehicle: saline
[17] = dose: 25.0 mg/kg/injection, schedule: Q04DX002 (ip), vehicle: saline
[18] = dose: 50.0 mg/kg/injection, schedule: Q01DX001 (ip), vehicle: saline
[19] = dose: 50.0 mg/kg/injection, schedule: Q04DX002 (ip), vehicle: saline
[20] = dose: 100.0 mg/kg/injection, schedule: Q04DX003 (ip), vehicle: saline

Measured: T/C

CS(=O)(=O)N(CC(=O)O)Cc1ccc(Cl)cc1
inactive: dose: 100.0 mg/kg/injection, schedule: Q04DX003 (ip), vehicle: other 102 % of control | dose: 200.0 mg/kg/injection, schedule: Q04DX003 (ip), vehicle: other 105 % of control | dose: 400.0 mg/kg/injection, schedule: Q04DX003 (ip), vehicle: other 98 % of control

CC(=O)CCC1(C)OC(=O)C(C)C2C1CCC1(C)C(=O)CCC21 (stereo unspecified)
inactive: dose: 50.0 mg/kg/injection, schedule: Q01DX001 (sc), vehicle: steriod suspending solution 101 % of control | dose: 100.0 mg/kg/injection, schedule: Q01DX001 (sc), vehicle: steriod suspending solution 103 % of control | dose: 200.0 mg/kg/injection, schedule: Q01DX001 (sc), vehicle: steriod suspending solution 113 % of control | dose: 400.0 mg/kg/injection, schedule: Q01DX001 (sc), vehicle: steriod suspending solution 101 % of control

CCCCC(=O)c1ccc(OC)c(C)c1
inactive: [1] 101 % of control | [2] 97 % of control | [3] 103 % of control

Cc1c(Cl)cccc1NC(=O)c1ccc(Cl)cc1
inactive: [4] 87 % of control | [5] 93 % of control | [6] 91 % of control | [7] 96 % of control | [8] 97 % of control | [9] 91 % of control

O=Cc1cc([N+](=O)[O-])ccc1OCC(=O)O
inactive: [10] 103 % of control | [11] 92 % of control | [12] 93 % of control

CC(=O)c1ccc2nc(C)cc(Cl)c2c1
inactive: [13] 96 % of control | [14] 91 % of control | [15] 96 % of control

CC(NP1(=O)OCC(C)([N+](=O)[O-])CO1)c1ccccc1 (stereo unspecified)
inactive: dose: 50.0 mg/kg/injection, schedule: Q01DX001 (ip), vehicle: carboxymethylcellulose (CMC) 97 % of control | [1] 113 % of control | [2] 115 % of control | [3] 95 % of control

C#CC[N+](CC)(CC)CC
inactive: [16] 100 % of control | dose: 25.0 mg/kg/injection, schedule: Q01DX009 (ip), vehicle: saline 106 % of control and 89 % of control | [17] 95 % of control and 97 % of control | dose: 25.0 mg/kg/injection, schedule: Q04DX003 (ip), vehicle: saline 99 % of control | [18] 100 % of control | dose: 50.0 mg/kg/injection, schedule: Q01DX009 (ip), vehicle: saline 98 % of control and 106 % of control | [19] 107 % of control and 122 % of control | dose: 50.0 mg/kg/injection, schedule: Q04DX003 (ip), vehicle: saline 102 % of control | [13] 105 % of control and 110 % of control | [20] 103 % of control

CC(=O)c1ccc2oc3ccccc3c2c1
inactive: dose: 100.0 mg/kg/injection, schedule: Q04DX002 (ip), vehicle: Klucel (hydroxypropylcellulose) (HPC) 97 % of control | dose: 200.0 mg/kg/injection, schedule: Q04DX002 (ip), vehicle: Klucel (hydroxypropylcellulose) (HPC) 100 % of control | dose: 400.0 mg/kg/injection, schedule: Q04DX002 (ip), vehicle: Klucel (hydroxypropylcellulose) (HPC) 93 % of control

C/C(CNc1nc(N)nc(N)c1N=Nc1ccc(Cl)cc1)=N\NC(N)=O
inactive: [13] 94 % of control | [14] 98 % of control | [15] 94 % of control

O=S(=O)(NC1CCC(CC2CCCCC2)CC1)c1ccccc1 (stereo unspecified)
inactive: [4] 101 % of control | [5] 96 % of control | [6] 104 % of control | [7] 97 % of control | [8] 106 % of control | [9] 94 % of control

Br[SiH](Br)Br
inactive: dose: 25.6 mg/kg/injection, schedule: Q04DX002 (ip), vehicle: saline with Tween-80 93 % of control | dose: 64.0 mg/kg/injection, schedule: Q04DX002 (ip), vehicle: saline with Tween-80 93 % of control | [10] 101 % of control | dose: 160.0 mg/kg/injection, schedule: Q04DX002 (ip), vehicle: saline with Tween-80 90 % of control | [11] 92 % of control | dose: 400.0 mg/kg/injection, schedule: Q04DX002 (ip), vehicle: saline with Tween-80 97 % of control | [12] 92 % of control

CCCCCN(CCCCC)C(=S)[S-].CCCCCN(CCCCC)C(=S)[S-].[Zn]
inactive: dose: 100.0 mg/kg/injection, schedule: Q04DX003 (ip), vehicle: carboxymethylcellulose (CMC) 94 % of control | dose: 200.0 mg/kg/injection, schedule: Q04DX003 (ip), vehicle: carboxymethylcellulose (CMC) 100 % of control | dose: 400.0 mg/kg/injection, schedule: Q04DX003 (ip), vehicle: carboxymethylcellulose (CMC) 91 % of control

S=C(N/N=C1\C=Cc2ccccc2C1)N/N=C1\C=Cc2ccccc2C1
inactive: [13] 92 % of control | [14] 95 % of control | [15] 95 % of control

CCCCNCCC[P+](c1ccccc1)(c1ccccc1)c1ccccc1
inactive: [17] 115 % of control | [19] 98 % of control | dose: 100.0 mg/kg/injection, schedule: Q04DX002 (ip), vehicle: saline 105 % of control

CC(C)(C)C(=C=C=O)C#N
inactive: dose: 100.0 mg/kg/injection, schedule: Q01DX001 (ip), vehicle: saline with Tween-80 87 % of control | dose: 200.0 mg/kg/injection, schedule: Q01DX001 (ip), vehicle: saline with Tween-80 94 % of control | dose: 400.0 mg/kg/injection, schedule: Q01DX001 (ip), vehicle: saline with Tween-80 87 % of control

OC1(c2ccccc2)CC2CCCCC2c2ccccc21 (stereo unspecified)
inactive: dose: 12.0 mg/kg/injection, schedule: Q01DX001 (ip), vehicle: saline 98 % of control | [16] 100 % of control | [18] 102 % of control

CCOC=Nc1c(N)ncnc1Cl
inactive: dose: 125.0 mg/kg/injection, schedule: Q01DX Z (ip), vehicle: other 93 % of control | dose: 250.0 mg/kg/injection, schedule: Q01DX Z (ip), vehicle: other 93 % of control | dose: 500.0 mg/kg/injection, schedule: Q01DX Z (ip), vehicle: other 103 % of control

CCC1=CCN2CCC34c5cc(C6(C(=O)OC)CC7CC(CC)CN(CCc8c6[nH]c6ccccc86)C7)c(OC)cc5N(C)C3C(O)(C(=O)OC)C(OC(C)=O)C1C24 (stereo unspecified)
inactive: dose: 0.8 mg/kg/injection, schedule: Q01DX001 (ip), vehicle: saline 100 % of control | dose: 1.6 mg/kg/injection, schedule: Q01DX001 (ip), vehicle: saline 100 % of control | dose: 3.2 mg/kg/injection, schedule: Q01DX001 (ip), vehicle: saline 101 % of control | dose: 6.4 mg/kg/injection, schedule: Q01DX001 (ip), vehicle: saline 97 % of control

O=[N+]([O-])c1ccc(O)c(C2OCCCO2)c1
inactive: [13] 101 % of control | [14] 98 % of control | [15] 101 % of control

CC1=C(C)CC2C(=O)OC(=O)C2C1 (stereo unspecified)
inactive: dose: 100.0 mg/kg/injection, schedule: Q01DX009 (ip), vehicle: saline 98 % of control | [5] 106 % of control | [20] 98 % of control | dose: 200.0 mg/kg/injection, schedule: Q01DX009 (ip), vehicle: saline 102 % of control | [7] 95 % of control | dose: 200.0 mg/kg/injection, schedule: Q04DX003 (ip), vehicle: saline 105 % of control | dose: 400.0 mg/kg/injection, schedule: Q01DX009 (ip), vehicle: saline 98 % of control | [9] 98 % of control | dose: 400.0 mg/kg/injection, schedule: Q04DX003 (ip), vehicle: saline 105 % of control

CCSC(=O)n1nc(Cl)c2cc([N+](=O)[O-])ccc21
inactive: [1] 93 % of control | [2] 102 % of control | [3] 93 % of control

NC(=O)COc1ccccc1Cl
inactive: dose: 50.0 mg/kg/injection, schedule: Q04DX003 (ip), vehicle: Klucel (hydroxypropylcellulose) (HPC) 102 % of control | [5] 94 % of control | [7] 93 % of control

C=CCOc1cc2c(ccc1=O)-c1c(cc(OC)c(OC)c1OC)CCC2NC(C)=O (stereo unspecified)
inactive: [1] 104 % of control | [2] 106 % of control | [3] 104 % of control

CCC(=O)Nc1cccc(OC(=O)N(C(C)C)C(C)C)c1
inactive: [10] 93 % of control | [11] 93 % of control | [12] 104 % of control
